Results as given in PubChem BioAssay (NCI).
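96-well plates; 48 h exposure; 5 concentrations. Endpoints by linear interpolation between flanking doses. Not reached: highest tested concentration assigned. TGI: total growth inhibition.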

Columns and labels:
Assay in all cases: NCI tumour cell line growth inhibition, 48 h
[1] = system: SF-539 CNS
[2] = system: HOP-62 NSCLC
[3] = system: HCT-116 colon
[4] = system: OVCAR-4 ovarian
[5] = system: OVCAR-8 ovarian
[6] = system: SF-295 CNS
[7] = system: SK-MEL-5 melanoma
[8] = system: NCI-H23 lung
[9] = system: MDA-MB-231 breast
[10] = system: OVCAR-5 ovarian

Row | SMILES | TGI [1] [µM] | TGI [2] [µM] | TGI [3] [µM] | TGI [4] [µM] | TGI [5] [µM] | TGI [6] [µM] | TGI [7] [µM] | TGI [8] [µM] | TGI [9] [µM] | TGI [10] [µM]
1 | CC(C)C(=O)Nc1cc(C(F)(F)F)ccc1[N+](=O)[O-] | > 100 | > 100 | > 100 | > 100 | > 100 | > 100 | > 100 | > 100 | > 100 | > 100
2 | CC1SCc2nc3ccccc3n21 (stereo not given) | > 100 | > 100 | > 100 | > 100 | > 100 | > 100 | > 100 | > 100 | > 100 | > 100
3 | CC1=C(c2ccccc2)NC(=S)C(C)C(c2ccccc2)=N1 (stereo not given) | 30.9 | > 100 | > 100 | > 100 | > 100 | > 100 | 82.9 | 70.4 | > 100 | > 100
4 | CN(C)CCn1c(=O)c2ccc(NCCN3CCNCC3)c3c(=O)c4ccccc4n(c1=O)c23 | 9 | 22.8 | 12.8 | 32.3 | 31.4 | 18 | 12.7 | 16.8 | 11.8 | 42.1
5 | C=C(CCC/C(C)=C/C=C/[C@@H](C)CCCc1ccoc1)C[C@@H]1OC(=O)[C@H](C)[C@@H]1O | 19.4 | 18.3 | > 50 | 20.1 | 21.3 | 19.1 | 14.3 | 16.6 | 16.9 | > 50
6 | CN(C)C(c1ccccc1)C1COC2Cc3ccccc3C1O2 (stereo not given) | > 100 | > 100 | > 100 | > 100 | > 100 | > 100 | > 100 | > 100 | > 100 | > 100
7 | [N-]=[N+]=NC(c1cn(C2CC(O)C(CO)O2)c(=O)[nH]c1=O)C(Cl)I (stereo not given) | > 100 | > 100 | > 100 | > 100 | > 100 | > 100 | > 100 | > 100 | > 100 | > 100
8 | O=c1[nH]nc(Cc2c[nH]c3ccccc23)o1 | > 100 | > 100 | > 100 | > 100 | > 100 | > 100 | > 100 | > 100 | > 100 | > 100
9 | O=C(c1ccccc1)c1ccc2[nH]c(-c3c(Cl)c(Cl)c(Cl)c(Cl)c3C(=O)N/N=C/c3cccc(Oc4ccccc4)c3)nc2c1 | > 100 | > 100 | > 100 | > 100 | > 100 | > 100 | > 100 | > 100 | > 100 | > 100
10 | COc1cc(/C=N/n2c(-c3ccccc3)nn(C(C)=O)c2=O)cc(OC)c1OC | 8.54 | > 100 | > 100 | > 100 | > 82.2 | 26.9 | 6.68 | > 49.4 | 64.3 | > 92.6
